In the NIST ThermoML archive (doi:10.1016/j.jct.2005.04.019):

Key:
[1] = 298.15 K, 101.33 kPa, Liquid; for viscosity: Capillary tube (Ostwald / Ubbelohde) method; for mass density: Vibrating tube method; for speed of sound: Quartz crystal interferometer (Mittal Enterprises, India)
[2] = xn = mol fraction of the nth substance listed; conditions: 298.15 K, 101 kPa, Liquid; for speed of sound: Quartz crystal interferometer (Mittal Enterprises, India)

CCCCCCC(C)O (stereo unspecified) [2-octanol]
[1]
Conditions	mass density [kg/m3]	viscosity [mPa·s]
–	816.13	6.568

CCCCC(C)O (stereo unspecified) [2-hexanol]
[1]
Conditions	mass density [kg/m3]	viscosity [mPa·s]
–	810.25	4.204

CCCCCC(C)O (stereo unspecified) [2-heptanol] + CC1CCCCC1
[2]
Conditions	mass density [kg/m3]	speed of sound [m/s]	viscosity [mPa·s]
x2 = 0.0998	–	1278	–
x2 = 0.103	808.34	–	3.935
x2 = 0.1479	–	1272	–
x2 = 0.1524	805.84	–	3.415
x2 = 0.206	–	1263	–
x2 = 0.2071	803.04	–	2.945
x2 = 0.2564	800.53	–	2.587
x2 = 0.3047	798.08	–	2.287
x2 = 0.3053	–	1250	–
x2 = 0.3558	795.52	–	2.013
x2 = 0.3966	–	1239	–
x2 = 0.4019	793.23	–	1.817
x2 = 0.4469	791.02	–	1.649
x2 = 0.4951	788.67	–	1.49
x2 = 0.5005	–	1229	–
x2 = 0.5969	783.72	–	1.225
x2 = 0.5973	–	1223	–
x2 = 0.7017	–	1223	–
x2 = 0.703	778.57	–	1.017
x2 = 0.7974	–	1222	–
x2 = 0.7979	773.96	–	0.879
x2 = 0.8883	769.71	–	0.773
x2 = 0.9017	–	1219	–
x2 = 0.9514	–	1215	–

CCCC(C)O (stereo unspecified) [pentan-2-ol] + CC1CCCCC1
[2]
Conditions	mass density [kg/m3]	speed of sound [m/s]	viscosity [mPa·s]
x2 = 0.067	801.75	–	2.764
x2 = 0.1011	799.88	–	2.501
x2 = 0.1026	–	1227	–
x2 = 0.1561	796.91	–	2.148
x2 = 0.2018	–	1219	–
x2 = 0.2088	794.12	–	1.863
x2 = 0.2653	791.21	–	1.618
x2 = 0.2991	789.53	–	1.488
x2 = 0.3077	–	1211	–
x2 = 0.3581	786.7	–	1.317
x2 = 0.3974	784.89	–	1.219
x2 = 0.3999	–	1206	–
x2 = 0.4481	782.64	–	1.113
x2 = 0.4885	780.93	–	1.044
x2 = 0.4976	–	1203	–
x2 = 0.5997	–	1202	–
x2 = 0.6007	776.49	–	0.901
x2 = 0.6973	773.05	–	0.819
x2 = 0.6984	–	1204	–
x2 = 0.8001	769.78	–	0.75
x2 = 0.8007	–	1207	–
x2 = 0.8981	767.12	–	0.704
x2 = 0.8998	–	1211	–
x2 = 0.9488	–	1211	–

CC(C)O [propan-2-ol]
[1]
Conditions	mass density [kg/m3]	speed of sound [m/s]	viscosity [mPa·s]
–	781.06	1142	2.098

CC1CCCCC1 [methylcyclohexane] + CCO
[2]
Conditions	mass density [kg/m3]	speed of sound [m/s]	viscosity [mPa·s]
x1 = 0.0499	782.02	–	1.034
x1 = 0.1024	779.14	–	0.987
x1 = 0.1037	–	1146	–
x1 = 0.1492	776.99	–	0.949
x1 = 0.1893	–	1151	–
x1 = 0.194	775.25	–	0.915
x1 = 0.2467	773.53	–	0.886
x1 = 0.313	771.77	–	0.853
x1 = 0.3143	–	1157	–
x1 = 0.3363	771.24	–	0.841
x1 = 0.4007	–	1162	–
x1 = 0.4015	769.94	–	0.81
x1 = 0.4438	769.21	–	0.79
x1 = 0.4752	768.72	–	0.776
x1 = 0.4788	–	1166	–
x1 = 0.5844	767.23	–	0.732
x1 = 0.5884	–	1173	–
x1 = 0.6993	–	1181	–
x1 = 0.7002	765.95	–	0.692
x1 = 0.8147	765.03	–	0.672
x1 = 0.8209	–	1191	–
x1 = 0.8864	764.74	–	0.667
x1 = 0.8943	–	1196	–
x1 = 0.9473	–	1202	–

CCCCCC(C)O (stereo unspecified) [2-heptanol]
[1]
Conditions	mass density [kg/m3]	viscosity [mPa·s]
–	813.33	5.346

CCCC(C)O (stereo unspecified) [pentan-2-ol]
[1]
Conditions	mass density [kg/m3]	speed of sound [m/s]	viscosity [mPa·s]
–	805.4	1235	3.421

CC1CCCCC1 [methylcyclohexane]
[1]
Conditions	mass density [kg/m3]	speed of sound [m/s]	viscosity [mPa·s]
–	764.99	1209	0.683

CCO [ethanol]
[1]
Conditions	mass density [kg/m3]	speed of sound [m/s]	viscosity [mPa·s]
–	785.32	1145	1.093
